Source: publication PMC11184554, “Nature-Inspired Gallinamides Are Potent Antischistosomal Agents: Inhibition of the Cathepsin B1 Protease Target and Binding Mode Analysis” (ACS Infectious Diseases, 2024)

Assays:
recombinant SmCB1 = test: Kinetic inhibition assay with recombinant SmCB1 (k2nd); type: biochemical, S. mansoni; conditions: second-order rate constant (kinact/Ki); substrate Cbz–Phe–Arg–AMC; pH 5.5, 37 °C; mean ± SE
Procedure: Gallinamide A and a series of its 18 derivatives were evaluated in vitro as inhibitors of SmCB1 to explore the binding specificities of the subsites in the enzyme’s active site. The gallinamide A inhibitor scaffold can be defined by positions P4 through P1′ (Schechter and Berger nomenclature[37]), which were assigned according to the binding mode analysis (see the crystallographic section below). The substituents R4, R1, and R1′ introduced on the scaffold (Table 2) are numbered according to the respective positions P4, P1, and P1′. The compounds’ second-order rate constants (k2nd) were determined using a kinetic inhibition assay with recombinant SmCB1 and the substrate, Cbz–Phe–Arg–AMC.
Inhibition measurements were performed in duplicate in 96-well microplates (100 μL assay volume) at 37 °C. SmCB1 (40 pM) was added to a mixture of the fluorogenic substrate Cbz–Phe–Arg–AMC (25 μM) and an inhibitor (0–100 μM) in 0.1 M sodium acetate, pH 5.5, containing 2.5 mM dithiothreitol and 0.01% (w/v) BRIJ 35. Substrate hydrolysis was monitored in an Infinite M1000 microplate reader (Tecan) at excitation and emission wavelengths of 360 and 465 nm, respectively, for up to 150 min. An observed first-order rate constant, kobs, was calculated at each inhibitor concentration by fitting the progress curve to the equation P = vi/kobs(1 – exp(−kobst)) + d where P is the product formation, t is the reaction time, vi is the initial velocity, and d is the offset. […] The second-order rate constant, k2nd, (and SE value) was determined by fitting the linear equation kobs = (k2nd[I])/(1 + [S]/Km), where [S] is the substrate concentration, [I] is the inhibitor concentration, and KM is the Michaelis–Menten constant. The KM value determined for SmCB1 was 25 μM. […] To determine IC50 values, SmCB1 (40 pM) was preincubated with the inhibitor (0–100 μM) for 30 min under assay conditions as described above, followed by the addition of the fluorogenic substrate Cbz–Phe–Arg–AMC (20 μM). Substrate hydrolysis was monitored for 30 min in a microplate reader as described above. The IC50 values were determined by nonlinear regression using GraFit software (Erithacus Software).

[1] = system: S. mansoni newly transformed schistosomula (NTS); test: Phenotypic screen with newly transformed schistosomula (NTS); type: cell-based
Procedure: The same 19 gallinamides were screened for bioactivity against S. mansoni newly transformed schistosomula (NTS), the postinvasive parasite stage that feeds on host blood.[40] In this primary assay, the NTS were exposed to 1 and 10 μM compounds for 3 days, and the resulting phenotypic responses were graded from 0 through 4, i.e., the least to the most severe (Table 2 and Table S1). […] The effects were more pronounced after 72 h, and when the higher, 10 μM, compound concentration was used (Table S1). […] Also, compared to gallinamide A and its analogs, 3 has an additional N-terminal N-acetamide modification that further reduces bioactivity (Table 2).
Phenotypic screens employed S. mansoni newly transformed schistosomula (NTS) and adults and were carried out as described previously.[18]−[20],[42] NTS were prepared by mechanically transforming infective larvae (cercariae).[40],[42] NTS (200–300 parasites) were incubated in flat-bottomed 96-well plates in 200 μL of Basch Medium 169 containing 5% (v/v) FBS, 100 U mL^–1 penicillin and 100 μg mL^–1 streptomycin (complete Basch medium)[75] at 5% CO2 and 37 °C.[76],[77] Inhibitors were added at final concentrations of 1 and 10 μM, and changes in phenotypes were observed under an inverted microscope every 24 h for up to 72 h.
A constrained nomenclature of “descriptors”[39],[42] was used to record the multiple and dynamic changes in movement, shape, and translucence that the schistosome parasite is capable of (Table S1 for NTS and Table S3 for adults). These descriptors were then converted into an ordinal “severity score” system ranging from 0 (no effect) to 4 (maximum effect), which allows for the relative comparison of compound effects.

In the case of `CCC(C)C(C(=O)OC(CC(C)C)C(=O)NC(CC(C)C)C(=O)NC(C=CC(=O)N1C(=O)C=C(OC)C1CC(C)C)Cc1ccccc1)N(C)C` (centres unmarked) [compound 10], the “SmCB1 inhibition k2nd” value (recombinant SmCB1) is reported as 537 ± 48 M^–1·s^–1, the schistosomula severity score ([1]; 1 μM compound, 24 h, scale 0 (no effect) to 4 (most severe)) is reported as 0 and the schistosomula phenotype descriptors ([1]; 1 µM compound, 48 h) is reported as “Dark, R”. The schistosomula severity score ([1]; 1 μM compound, 48 h, scale 0 to 4) was 2, the schistosomula severity score ([1]; 1 μM compound, 72 h, scale 0 to 4) was 4 and the schistosomula severity score ([1]; 10 µM compound, 24 h, scale 0 to 4) was 0. For the same compound, the schistosomula severity score ([1]; 10 µM compound, 48 h, scale 0 to 4) was 4 and the schistosomula severity score ([1]; 10 µM compound, 72 h, scale 0 to 4) was 4.
